US20250199004A1, “METHODS OF EVALUATING TREATMENT OUTCOME IN HIGH GRADE SEROUS OVARIAN CANCER” (THE REGENTS OF THE UNIVERSITY OF COLORADO, A BODY CORPORATE, priority 2018, published 2025)

What was measured:
[1] = tested on: TMEFF1 expression in OVCAR4 cells; assay: TMEFF1 (CBX2 target gene) expression by qPCR; type: cell-based, human; conditions: qPCR after treatment of OVCAR4 cells
Experimental: Ten candidate inhibitors were evaluated based on their ability to inhibit HGSOC cell viability. Dose response assays of all 10 inhibitors were conducted in OVCAR4, PEO1, and COV504 HGSOC cell lines to determine half inhibitory concentration (IC50) (FIG. 12 Panel A). We explored ability of these compounds to downregulate a CBX2 target gene, transmembrane protein with EGF-like and two follistatine-like domains 1 (TMEFF1) (FIG. 12 Panel B).
RNA was isolated using RNAeasy Plus Mini Kit (Qiagen, Hilden Germany) according to the manufacturer's protocol. NanoDrop spectrophotometry was used to measure concentration of extracted RNA. Luna Universal One-step RT qPCR kit (New England BioLabs, Ipswich, MA) was used on BioRad CFX96 (Bio-Rad, Hercules, CA). HPRT or GAPDH were used as internal control as stated in figure legend.

[2] = tested on: Histone H2A Lys119 ubiquitination (H2AK119ub); assay: Western blot for H2AK119ub as marker of CBX2/PRC1 activity; type: cell-based, human
Experimental: CBX2 is a known subunit of PRC1, which is critical for normal development and functions as a transcriptional repressor. PRC1 is understood to have histone ubiquitin ligase activity, specifically targeting Histone H2A […] ubiquitination ([…]). In order to evaluate the impact of treatment with alisertib on the broader PRC1 complex, […] was used as a surrogate marker of CBX2 activity in the PRC1. OVCAR4 (***confirm) cells were treated with IC50 doses of each of the 10 candidate inhibitors, a Western blot for […] was compared to a beta-actin control (FIG. 12 Panel C). […] Finally, PRC1 target […] was used to evaluate the impact of treatment with alisertib on the broader PRC1 complex. OVCAR4 and PEO1 cells were treated with increasing doses of aliserib and western blots were performed to evaluate […] as a marker of PRC1 activity (FIG. 14 Panel F). Cell lysis was performed using radioimmunoprecipitation assay (RIPA) buffer (150 mM sodium chloride, Triton X-100, 0.5% sodium deoxycholate, 0.1% SDS [sodium dodecyl sulfate], 50 mM Tris, pH 8.0) supplemented with complete EDTA-free protease inhibitor cocktail (Roche), as well as NaF and NaV. Protein was quantified using bicinchoninic acid (BCA) protein assay (Thermo Fisher Scientific, Waltham, MA) and spectrophotometry. An 8% SDS polyacrylamide gel resolving gel was created with a 4% stacking gel. […]

[3] = tested on: OVCAR4 cells; assay: Proliferation assay, parental vs CRISPR CBX2 knock out cells; type: cell-based, human; conditions: OVCAR4 CRISPR/Cas9 CBX2 KO vs parental
Experimental: Examples 8-12: All drugs were suspended in DMSO at the concentration of 50 mM and aliquoted and stored in -80 C. 1000 cells were seeded in 96 well plate a day prior. 10 fold dilution of drugs in the cultureing media supplemented with FBS and penicillin/Streptomycin was added and cells were cultured until the cells in the no-drug added wells became confluent (5-8 days). Cells were washed with PBS twice and fixed with fixation buffer (10% Methanol and 10% Acetic acid in PBS) followed by staining with Cristal Violet staining solution (0.4% Cristal Violet in 20% Ethanol). […] CBX2 CRISPR knocked-out OVCAR4 cells were created by the University of Colorado Functional Genomics Facility using the IDT Alt-R RNP system. ALT-R crRNA and ATL-R tracrRNA were suspended at 100 μmol/L in nuclease-free IDTE pH7.5. The same volumes of ALT-R crRNA and ATL-R tracrRNA were mixed to prepare gRNA complex at 50μmol/L, heated at 95° C. for 5 minutes, and then were cooled to room temperature. The RNP complex was prepared with 150 pmol of gRNA and 125 pmol of Alt-R Cas9-NLS in final volume of 5 μL in PBS. Cells were harvested in Necleofector solution SF with supplement (Lonza, Basel, Switzerland) at a concentration of 1×10^6 cells per 100 μL. The transfection mix was made with 100 μL of cell suspension, 2.5 μL each of RNP complex, and 0.6 μL of 100 μL of Alt-R Cas9 Electroporation enhancer. […]

[4] = tested on: OVCAR4 cells; assay: Ultra low dilution analysis (ULDA) of stemness; type: cell-based, human
Experimental: An ultralow dilutional assay (ULDA) utilizing the OVCAR4 HGSOC cell line was used to evaluate the functional impact of four inhibitors. The number of spheroids were plotted against the IC50 dose of each agent (FIG. 13 Panel B). The more significant the decrease in spheroids formation capacity, the more significant the decrease in stemness associated with treatment. […] Cells were trypsinized and filtered with a 40-micron filter, creating a single cell suspension. Cells were plated in 96 wells ultra-low attachment plates (CORNING #3474 this is flat bottom, and CORNING #7007: used u bottom for COV504) in 200 ul CSC media (DMEM/F12, 1× B27, 4% FBS, 100 U/ml penicillin/streptomycin, 20 ng/ml human EGF, 20 ng/ml human FGF). After 3 days, 100 μl of medium was gently taken out, then added drugs to final IC50 concentration. The media with drug was replaced with half volume every 4-5 days and cultured for 3 weeks. […] After 4 hours spheroid existence and color were evaluated under the microscope (Incucyte). Observation of purple spheroids confirmed the presence of live cells and were scored as 1. If no spheroids appreciated, or if purple spheroids were not observed it was scored as 0. […] The stem cell frequency was calculated using ultra low limiting dilution analysis (PMID: 19567251).

[5] = tested on: ID8 Trp53-/- Brca2-/- cells; assay: Syngeneic mouse model, CBX2 intact vs CBX2 knock down tumors; type: in vivo, C57BL/6J mice; conditions: 30 mg/kg PO, 28 days
Experimental: To further elucidate the dependence of alisertib on CBX2, an in vivo study was performed using a syngeneic mouse model with CBX2 intact compared to CBX2 knock down, undergoing treatment with alisertib. Measurements of mRNA expression confirmed that CBX2 knock down was effective (FIG. 15 Panel A). The mice were treated with vehicle control or 30 mg/kg alisertib for 28 days (FIG. 15 Panel B). Tumor-bearing mice were necropsied at the end of treatment and omental weight, number of dissemination sites, and total tumor weight were quantified (FIG. 15 Panels C-E, respectively). […] It can be concluded therefore, that the loss of CBX2 expression in an ovarian cancer model attenuates the anti-tumor response to alisertib. […] Tissue was also collected and processed for further analysis. […] In the second study, mice were treated with 30 mg/kg alisertib, PO, for 28 days, as described above. Due to the weight loss observed in the first study, we reduced treatment from 7 days per week to 5 days per week.

In the case of `COc1cc(Nc2ncc3c(n2)-c2ccc(Cl)cc2C(c2c(F)cccc2OC)=NC3)ccc1C(=O)O` [alisertib], the TMEFF1 expression [1] is reported as “significantly inhibited”, the “H2AK119ub, surrogate marker of PRC1 activity” value ([2]; OVCAR4 and PEO1 cells, increasing doses) is reported as “decreased in parallel with CBX2” and the “Histone H2A Lys119 ubiquitination” value ([2]; OVCAR4 cells, IC50 dose, vs beta-actin control) is reported as “decreased”. The “IC50 in CBX2 KO cells compared to the parental cells” value [3] was “ten times higher”, the “impact on stemness through ULDA on knocking out CBX2” value ([4]; OVCAR4 CBX2 KO vs parental) was “attenuated impact” and the stem cell frequency ([4]; treatment at IC50) was “decreased”. The “number of dissemination sites: anti-tumor response in CBX2 knock down mice vs CBX2 intact mice” value [5] was “significant attenuation”, the “omental weight: anti-tumor response in CBX2 knock down mice vs CBX2 intact mice” value [5] was “significant attenuation” and the “total tumor weight: anti-tumor response in CBX2 knock down mice vs CBX2 intact mice” value [5] was “significant attenuation”.
